Key:
[1] = biological target: Beta-3 adrenergic receptor (Canis lupus familiaris, UniProt O02662); experiment: Agonist activity at dog recombinant beta3 adrenergic receptor expressed in CHO cells assessed as cAMP accumulation by enzyme immunoassay; format: functional, cell-based
[2] = Inhibition of KCl-induced tonic contraction in Beagle dog detrusor muscle strips preincubated for 15 mins before KCl challenge; format: functional; conditions: Canis lupus familiaris
[3] = biological target: Beta-3 adrenergic receptor (Homo sapiens, UniProt P13945); experiment: Agonist activity at human recombinant beta3 adrenergic receptor expressed in CHO cells assessed as cAMP accumulation by enzyme immunoassay; format: functional, cell-based
Sequence of Beta-3 adrenergic receptor (Homo sapiens, UniProt P13945) (P13945 whole entry): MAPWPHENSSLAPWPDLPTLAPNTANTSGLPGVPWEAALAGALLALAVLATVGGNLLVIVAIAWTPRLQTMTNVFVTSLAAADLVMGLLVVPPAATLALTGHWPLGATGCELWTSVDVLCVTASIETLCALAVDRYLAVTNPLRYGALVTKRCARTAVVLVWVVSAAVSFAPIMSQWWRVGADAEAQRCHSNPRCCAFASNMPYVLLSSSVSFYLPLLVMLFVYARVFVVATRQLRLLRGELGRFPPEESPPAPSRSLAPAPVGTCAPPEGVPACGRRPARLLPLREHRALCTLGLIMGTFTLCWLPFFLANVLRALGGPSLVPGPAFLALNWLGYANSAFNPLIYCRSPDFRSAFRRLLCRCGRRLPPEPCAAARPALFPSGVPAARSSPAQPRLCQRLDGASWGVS

[4] = biological target: Beta-2 adrenergic receptor (Homo sapiens, UniProt P07550)
Sequence of Beta-2 adrenergic receptor (P07550 whole entry): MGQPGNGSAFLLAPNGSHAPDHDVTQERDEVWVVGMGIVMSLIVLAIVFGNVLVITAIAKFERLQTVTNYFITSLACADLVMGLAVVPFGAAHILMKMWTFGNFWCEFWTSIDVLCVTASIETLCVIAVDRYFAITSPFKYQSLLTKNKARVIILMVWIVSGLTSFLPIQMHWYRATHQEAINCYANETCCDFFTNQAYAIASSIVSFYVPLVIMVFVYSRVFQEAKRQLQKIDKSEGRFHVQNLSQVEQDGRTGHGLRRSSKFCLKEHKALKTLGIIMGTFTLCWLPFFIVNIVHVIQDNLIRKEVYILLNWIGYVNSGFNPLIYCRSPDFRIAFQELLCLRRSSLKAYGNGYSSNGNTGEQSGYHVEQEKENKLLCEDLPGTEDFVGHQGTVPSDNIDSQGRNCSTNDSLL
Description: Agonist activity at human recombinant beta2 adrenergic receptor expressed in CHO cells assessed as cAMP accumulation by enzyme immunoassay

Canis familiaris [5] = experiment: Ratio of Cmax for drug to Cmax for (R)-4'-(2-(2-(3-chlorophenyl)-2-hydroxyethylamino)ethyl)-3-isopropoxybiphenyl-4-carboxylic acid in beagle dog at 0.1 or 0.2 mg/kg, po by cassette assay; format: ADME, organism-based, Canis lupus familiaris; parameters: dose 0.2 mg/kg, route oral; conditions: in vivo
[6] = biological target: Beta-1 adrenergic receptor (Homo sapiens, UniProt P08588)
Sequence of Beta-1 adrenergic receptor (P08588 whole entry): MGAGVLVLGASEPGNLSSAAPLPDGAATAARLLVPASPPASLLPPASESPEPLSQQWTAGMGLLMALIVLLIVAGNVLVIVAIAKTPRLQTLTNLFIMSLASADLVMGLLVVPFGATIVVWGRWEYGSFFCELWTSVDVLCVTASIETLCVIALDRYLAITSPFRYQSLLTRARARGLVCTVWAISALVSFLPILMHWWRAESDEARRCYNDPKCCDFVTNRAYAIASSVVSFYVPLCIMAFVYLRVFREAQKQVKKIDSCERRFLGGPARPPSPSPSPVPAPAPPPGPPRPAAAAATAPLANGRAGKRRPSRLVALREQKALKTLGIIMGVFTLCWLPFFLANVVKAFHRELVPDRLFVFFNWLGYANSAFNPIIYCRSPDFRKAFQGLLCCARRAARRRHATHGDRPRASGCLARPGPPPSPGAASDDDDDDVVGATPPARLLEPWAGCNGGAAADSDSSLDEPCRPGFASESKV
Description: Agonist activity at human recombinant beta-1 adrenergic receptor expressed in CHO cells assessed as cAMP accumulation by enzyme immunoassay

[7] = Cmax in Beagle dog at 0.10 mg/kg, po by cassette assay; format: ADME, organism-based, Canis lupus familiaris; parameters: dose 0.1 mg/kg, route oral; conditions: in vivo, 0.1 mg/kg
[8] = AUC (0 to 24 hrs) in Beagle dog at 0.10 mg/kg, po by cassette assay; format: ADME, organism-based, Canis lupus familiaris; parameters: time < 24 hr, dose 0.1 mg/kg, route oral; conditions: plasma, 0.1 mg/kg
[9] = Total clearance in Beagle dog at 0.10 mg/kg, iv by cassette assay; format: ADME, organism-based, Canis lupus familiaris; parameters: dose 0.1 mg/kg, route intravenous; conditions: in vivo, 0.1 mg/kg
[10] = Terminal half life in Beagle dog plasma at 0.10 mg/kg, iv by cassette assay; format: ADME, organism-based, Canis lupus familiaris; parameters: dose 0.1 mg/kg, route intravenous; conditions: 0.1 mg/kg, read-out: beta t1/2 (converted)
[11] = Bioavailability in Beagle dog at 0.10 mg/kg, po and iv by cassette assay; format: ADME, organism-based, Canis lupus familiaris; conditions: in vivo, 0.1 mg/kg
Canis familiaris [12] = experiment: Inhibition of carbachol-induced increase in intravesical pressure in Beagle dog OAB model at 10 ug/kg, iv for 30 mins measured for 180 mins; format: functional; conditions: Canis lupus familiaris
Canis familiaris [13] = experiment: Inhibition of carbachol-induced increase in intravesical pressure in intraduodenally dosed Beagle dog OAB model for 30 mins measured for 180 mins; format: functional, organism-based; conditions: Canis lupus familiaris
[14] = Protein binding in Beagle dog serum; format: ADME, cell-free, Canis lupus familiaris; conditions: read-out: PPB (converted)
[15] = Cmax in rat at 0.32 mg/kg, po by cassette assay; format: ADME, organism-based; parameters: dose 0.32 mg/kg, route oral; conditions: in vivo
[16] = Bioavailability in rat at 0.32 mg/kg, po and iv by cassette assay; format: ADME, organism-based; conditions: in vivo
[17] = Bioavailability in monkey at 0.32 mg/kg, po and iv by cassette assay; format: ADME, organism-based, Macaca mulatta; conditions: rhesus monkey, in vivo
[18] = Total clearance in rat at 0.32 mg/kg, iv by cassette assay; format: ADME, organism-based; parameters: dose 0.32 mg/kg, route intravenous; conditions: in vivo
[19] = AUC (0 to 24 hrs) in rat at 0.32 mg/kg, po by cassette assay; format: ADME, organism-based; parameters: time < 24 hr, dose 0.32 mg/kg, route oral; conditions: plasma
[20] = Terminal half life in rat plasma at 0.32 mg/kg, iv by cassette assay; format: ADME, organism-based; parameters: dose 0.32 mg/kg, route intravenous; conditions: read-out: beta t1/2 (converted)
[21] = Total clearance in monkey at 0.32 mg/kg, iv by cassette assay; format: ADME, organism-based, Macaca mulatta; parameters: dose 0.32 mg/kg, route intravenous; conditions: rhesus monkey, in vivo
[22] = Ratio of EC50 for inhibition of KCl-induced tonic contraction in anesthetized Beagle dog detrusor muscle strip to EC50 for dog recombinant beta3 adrenergic receptor expressed in CHO cells; parameters: species or system Canis lupus familiaris

Sequence of Beta-3 adrenergic receptor (Canis lupus familiaris, UniProt O02662) (O02662 whole entry): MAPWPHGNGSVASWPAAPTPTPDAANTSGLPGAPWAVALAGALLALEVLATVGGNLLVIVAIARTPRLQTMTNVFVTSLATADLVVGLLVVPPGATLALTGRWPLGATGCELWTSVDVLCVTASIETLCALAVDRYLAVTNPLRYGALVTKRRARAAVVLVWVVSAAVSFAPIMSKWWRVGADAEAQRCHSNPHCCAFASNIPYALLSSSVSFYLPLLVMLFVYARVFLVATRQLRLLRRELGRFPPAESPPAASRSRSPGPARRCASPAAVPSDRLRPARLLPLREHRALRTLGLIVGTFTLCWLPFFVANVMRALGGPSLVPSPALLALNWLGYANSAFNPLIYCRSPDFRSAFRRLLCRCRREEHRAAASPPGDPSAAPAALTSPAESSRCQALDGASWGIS

Row | EC50 [6] | Cmax [7] | AUC(0-t) at 24 h [8] | clearance [9] | EC50 ([3]; read-out: EC50) | half-life [10] | bioavailability [11] | SMILES | also measured
1 | > 1000 nM | 17.1 ng/mL | 211 ng·h/mL | 4 mL/min/kg | 0.41 nM | 4.7 h | 50% | CS(=O)(=O)NC(=O)c1ccc(-c2ccc(CCNC[C@H](O)c3ccccc3)cc2)cc1C1CCCC1.Cl | 
2 | > 1000 nM | 13.1 ng/mL | 106 ng·h/mL |  | 0.33 nM |  |  | CS(=O)(=O)NC(=O)c1ccc(-c2ccc(CCNC[C@H](O)c3ccccc3)cc2)cc1C1CCCCC1.Cl | 
3 | > 1000 nM | 1.4 ng/mL | 13.4 ng·h/mL | 21.8 mL/min/kg | 0.29 nM | 1.4 h | 18% | CS(=O)(=O)NC(=O)c1ccc(-c2ccc(CCNC[C@H](O)c3cccnc3)cc2)cc1C1CCCC1.Cl.Cl | 
4 | > 1000 nM | 24.9 ng/mL | 210 ng·h/mL | 5.3 mL/min/kg | 0.46 nM | 3.5 h | 67% | CC(C)Cc1cc(-c2ccc(CCNC[C@H](O)c3ccccc3)cc2)ccc1C(=O)NS(C)(=O)=O.Cl | EC50 ([1]; read-out: EC50): 0.88 nM; EC50 (Canis familiaris [13]): 14.2 nM; ED50 (Canis familiaris [13]): 0.0247 mg/kg; Cmax [15]: 6.4 ng/mL; EC50 ([2]; read-out: EC50): 2.6 nM; bioavailability [16]: 40%; clearance [18]: 35.2 mL/min/kg; AUC(0-t) at 24 h [19]: 64.8 ng·h/mL; EC50 [4]: > 10000 nM; fraction unbound [14]: 0.08; half-life [20]: 2.5 h; inhibition in vivo at 0.01 mg/kg (Canis familiaris [12]): > 70%
5 | > 1000 nM | 22.2 ng/mL | 363 ng·h/mL | 3 mL/min/kg | 0.43 nM | 7.8 h | 70% | CS(=O)(=O)NC(=O)c1ccc(-c2ccc(CCNC[C@H](O)c3ccccc3)cc2)cc1OC1CCCCC1.Cl | EC50 ([1]; read-out: EC50): 0.83 nM; Ratio EC50 [22]: >50; EC50 ([2]; read-out: EC50): > 50 nM; EC50 ([2]; read-out: pEC50 (converted)): 12.6 nM; EC50 ([3]; read-out: pEC50 (converted)): 0.126 nM; inhibition in vivo at 0.01 mg/kg (Canis familiaris [12]): 58%

The next lines start with the compound.

Row | SMILES | EC50 [6] | Cmax [7] | AUC(0-t) at 24 h [8] | clearance [9] | EC50 ([3]; read-out: EC50) | half-life [10] | bioavailability [11] | also measured
6 | CC(C)Oc1cc(-c2ccc(CCNC[C@H](O)c3cccnc3)cc2)ccc1C(=O)O |  |  |  |  |  |  |  | EC50 ([1]; read-out: pEC50 (converted)): 10 nM; EC50 ([2]; read-out: pEC50 (converted)): 7.94 nM; EC50 ([3]; read-out: pEC50 (converted)): 1.58 nM; EC50 [4]: > 10000 nM; Ratio (Canis familiaris [5]): 0.65
7 | CC(C)Oc1cc(-c2ccc(CCNC[C@H](O)c3ccccc3)cc2)ccc1C(=O)NS(C)(=O)=O.Cl | > 1000 nM | 33.4 ng/mL | 562 ng·h/mL | 2.3 mL/min/kg | 3.1 nM | 12 h | 75% | EC50 ([1]; read-out: EC50): 4.9 nM; EC50 ([1]; read-out: pEC50 (converted)): 1 nM; EC50 ([3]; read-out: pEC50 (converted)): 0.631 nM; inhibition in vivo at 0.01 mg/kg (Canis familiaris [12]): 51%
8 | CC(C)Cc1cc(-c2ccc(CCNC[C@H](O)c3ccccc3)cc2)ccc1C(=O)O |  |  |  |  |  |  |  | EC50 ([1]; read-out: EC50): 2.2 nM; EC50 (Canis familiaris [13]): 18.7 nM; ED50 (Canis familiaris [13]): 0.0459 mg/kg; EC50 ([2]; read-out: EC50): 8.7 nM; fraction unbound [14]: 0.14
9 | CS(=O)(=O)NC(=O)c1ccc(-c2ccc(CCNC[C@H](O)c3ccccc3)cc2)cc1NC1CCCCC1.Cl.Cl | 900 nM | 3.2 ng/mL | 33.5 ng·h/mL | 9.9 mL/min/kg | 0.14 nM | 3.9 h | 22% | 
10 | O=C(O)c1ccc(-c2ccc(CCNC[C@H](O)c3cccnc3)cc2)cc1OC1CCCCC1 |  |  |  |  |  |  |  | EC50 ([1]; read-out: pEC50 (converted)): 1.26 nM; EC50 (Canis familiaris [13]): 4 nM; ED50 (Canis familiaris [13]): 0.065 mg/kg; EC50 ([2]; read-out: EC50): 14.1 nM; EC50 ([2]; read-out: pEC50 (converted)): 5.01 nM; EC50 ([3]; read-out: pEC50 (converted)): 0.251 nM; EC50 [4]: > 10000 nM; fraction unbound [14]: 0.11; Ratio (Canis familiaris [5]): 0.48
11 | CS(=O)(=O)NC(=O)c1ccc(-c2ccc(CCNC[C@H](O)c3ccccc3)cc2)cc1SC1CCCCC1.Cl | 840 nM | 8 ng/mL | 56.3 ng·h/mL |  | 0.5 nM |  |  | 
12 | CS(=O)(=O)NC(=O)c1ccc(-c2ccc(CCNC[C@H](O)c3cnccc3N)cc2)cc1OC1CCCCC1.Cl.Cl |  | 2.5 ng/mL | 26.7 ng·h/mL | 34.9 mL/min/kg |  | 6.7 h | 54% | ED50 (Canis familiaris [13]): 0.0143 mg/kg; Cmax [15]: 3.3 ng/mL; bioavailability [16]: 5%; bioavailability [17]: 0%; clearance [18]: 36.4 mL/min/kg; AUC(0-t) at 24 h [19]: 6.3 ng·h/mL; half-life [20]: 1.7 h; clearance [21]: 52 mL/min/kg
13 | CS(=O)(=O)NC(=O)c1ccc(-c2ccc(CCNC[C@H](O)c3ccccc3)cc2)cc1CC1CCCCC1.Cl | 370 nM | 27.9 ng/mL | 230 ng·h/mL | 4.9 mL/min/kg | 0.54 nM | 3.9 h | 70% | 
14 | CC(C)Cc1cc(-c2ccc(CCNC[C@H](O)c3cccnc3)cc2)ccc1C(=O)O |  |  |  |  |  |  |  | Ratio (Canis familiaris [5]): 0.36
15 | CC(C)Sc1cc(-c2ccc(CCNC[C@H](O)c3cccnc3)cc2)ccc1C(=O)NS(C)(=O)=O.Cl.Cl | 240 nM | 5.3 ng/mL | 50.9 ng·h/mL | 5.4 mL/min/kg | 0.19 nM | 4.3 h | 14% | 

Reference: ChEMBL document CHEMBL1138480, “Discovery of highly potent and selective biphenylacylsulfonamide-based beta3-adrenergic receptor agonists and evaluation of physical properties as potential overactive bladder therapies: part 5” (J Med Chem, 2009)
